Among the test systems are SK-MEL-2 melanoma; SN12C renal; COLO 205 colon; MOLT-4 leukemia; SNB-75 CNS; HT29 colon; K-562 leukemia; UO-31 renal; SF-539 CNS; HL-60(TB) leukemia; 786-0 renal; HOP-62 NSCLC; UACC-62 melanoma; NCI-H522 lung; LOX IMVI melanoma; DU-145 prostate; PC-3 prostate; MDA-N; MDA-MB-231 breast; BT-549 breast.
Assay in all cases: growth of human tumour cells (NCI), 48 h

The structures appear in SMILES notation.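 How tested: cells in 96-well plates exposed to compound for 48 hours at five concentrations. Definition used: TGI = concentration required for complete inhibition of growth.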

For `CC1(S)CC2C(CC1Sc1ccccc1)C2(C)C` (configuration not stated), the TGI in the test with SK-MEL-2 melanoma, in the test on SN12C renal, with COLO 205 colon, in the test on MOLT-4 leukemia, with SNB-75 CNS and in the test with HT29 colon was over 100 µM in each case. Besides, the TGI with K-562 leukemia, in the test with UO-31 renal, with SF-539 CNS, in the test on HL-60(TB) leukemia and in the test with 786-0 renal was over 100 µM each time.
Regarding `CC1(C)OCC([C@H]2CC23SCCCS3)O1` (some centres not stated), the TGI in the test on SK-MEL-2 melanoma, in the test with SN12C renal, in the test on COLO 205 colon, with MOLT-4 leukemia, in the test on SNB-75 CNS and in the test with HOP-62 NSCLC was over 100 µM in each case. The TGI in the test with HT29 colon, in the test on UACC-62 melanoma, in the test on K-562 leukemia, with NCI-H522 lung, in the test with UO-31 renal and in the test with SF-539 CNS was over 100 µM each time. The TGI with HL-60(TB) leukemia and in the test with 786-0 renal was over 100 µM throughout.
Turning to `O=C(Nc1cc(Cl)cc(Cl)c1)/C(Cc1nc2ccccc2[nH]c1=O)=N/NC(=O)c1ccncc1`, the TGI in the test with SK-MEL-2 melanoma, in the test with COLO 205 colon, in the test with MOLT-4 leukemia, in the test on HOP-62 NSCLC, with UACC-62 melanoma and in the test with K-562 leukemia was over 100 µM throughout. The TGI in the test with UO-31 renal, in the test with LOX IMVI melanoma, with SF-539 CNS, in the test with HL-60(TB) leukemia and in the test on 786-0 renal was over 100 µM in each case.
As for `NCCCCC(=O)c1cccnc1`, the TGI in the test on SK-MEL-2 melanoma, with MOLT-4 leukemia, in the test on HOP-62 NSCLC, in the test with HT29 colon, in the test with UACC-62 melanoma and in the test on K-562 leukemia was over 100 µM in each case. Also, the TGI in the test on NCI-H522 lung, in the test on UO-31 renal, in the test on LOX IMVI melanoma, in the test with SF-539 CNS, in the test on HL-60(TB) leukemia and in the test with 786-0 renal was over 100 µM each time.
Consider `CC1Cc2cc(O)c(O)cc2-c2cc(O)c(O)cc2CC1C` (configuration not stated), for which the TGI is 15 µM with SK-MEL-2 melanoma; 49 µM with SN12C renal; 32.1 µM in the test with COLO 205 colon; 32.3 µM in the test on MOLT-4 leukemia; over 100 µM in the test with DU-145 prostate; over 100 µM in the test on SNB-75 CNS. Also, the TGI with HOP-62 NSCLC is 41.9 µM; with HT29 colon, 63.9 µM; in the test on UACC-62 melanoma, 19.3 µM; in the test with K-562 leukemia, 39.5 µM; with NCI-H522 lung, 49.8 µM; in the test with UO-31 renal, 85.3 µM. Also, the TGI with LOX IMVI melanoma was found to be 23.1 µM; in the test with PC-3 prostate it was 61.5 µM; in the test on SF-539 CNS, 19.6 µM; in the test with MDA-N it was 11.7 µM; in the test on MDA-MB-231 breast, 24.5 µM; in the test on 786-0 renal, 39.9 µM.
For `O=C(CC(=O)N1N=C(N(c2ccccc2)c2ccccc2)CC1c1ccccc1)Nc1ccc(Cl)cc1` (configuration not stated), the TGI in the test on SK-MEL-2 melanoma, in the test on SN12C renal, with COLO 205 colon, with MOLT-4 leukemia, with DU-145 prostate and with SNB-75 CNS was over 100 µM each time. The TGI with BT-549 breast, in the test on HOP-62 NSCLC, in the test with HT29 colon, in the test with UACC-62 melanoma, with K-562 leukemia and with NCI-H522 lung was over 100 µM throughout. The TGI in the test on UO-31 renal, in the test on PC-3 prostate, in the test with SF-539 CNS, with MDA-MB-231 breast, in the test on HL-60(TB) leukemia and in the test with 786-0 renal was over 100 µM each time.
With `Cc1cnc2c(c1)C(=O)C1=C(OC(C)(C)CC1O)C2=O` (configuration not stated), the TGI in the test with SK-MEL-2 melanoma is over 100 µM; in the test on SN12C renal, 29.8 µM; in the test with COLO 205 colon, 32.4 µM; in the test on MOLT-4 leukemia, 44.3 µM; in the test with SNB-75 CNS, 28.5 µM; in the test with HOP-62 NSCLC, 34 µM. Also, the TGI with HT29 colon amounted to 43.6 µM; in the test with UACC-62 melanoma, 12.6 µM; with K-562 leukemia it was 46.4 µM; with NCI-H522 lung, 31.4 µM; in the test on UO-31 renal it was 29.7 µM; in the test with LOX IMVI melanoma, 25.8 µM. Also, the results for the TGI in the test on SF-539 CNS, with HL-60(TB) leukemia and in the test on 786-0 renal were 31.4 µM, 26.3 µM and 28.2 µM, respectively.
`Nc1c(N2CCOCC2)c(=O)nc2[nH]/c(=C\c3ccccc3)c(=O)n12`: the TGI in the test on SN12C renal, in the test on COLO 205 colon, in the test on MOLT-4 leukemia, with DU-145 prostate, in the test with SNB-75 CNS and in the test on HT29 colon was over 100 µM in each case. Also, the TGI in the test with K-562 leukemia is 93 µM; with NCI-H522 lung it was over 100 µM; in the test with UO-31 renal, over 100 µM; in the test on LOX IMVI melanoma, over 100 µM; in the test with SF-539 CNS it was over 100 µM; in the test with MDA-N, over 100 µM. The results for the TGI with MDA-MB-231 breast, with HL-60(TB) leukemia and in the test with 786-0 renal were over 100 µM, 57.3 µM and over 100 µM, respectively.
Take `COC(=O)C1=C(C(=O)OC)SC(=C2S[C@@H]3[C@@H]4C[C@H]([C@@H]3S2)[C@H]2C(=O)OC(=O)[C@@H]42)S1`: the TGI in the test on SK-MEL-2 melanoma, in the test with SN12C renal, in the test on COLO 205 colon, in the test on MOLT-4 leukemia, in the test with DU-145 prostate and in the test on BT-549 breast was over 100 µM throughout. For the same compound, the TGI in the test with HOP-62 NSCLC, with HT29 colon, in the test on UACC-62 melanoma, with K-562 leukemia, with NCI-H522 lung and in the test with UO-31 renal was over 100 µM throughout. Further, the TGI with LOX IMVI melanoma, in the test with PC-3 prostate, with SF-539 CNS, in the test with MDA-MB-231 breast, with HL-60(TB) leukemia and in the test with 786-0 renal was over 100 µM each time.

The values above are taken from PubChem BioAssay (NCI).
